Test results from US20240139185A1, “COMPOUNDS THAT PARTICIPATE IN COOPERATIVE BINDING AND USES THEREOF” (Revolution Medicines, Inc., priority 2018, published 2024).
Like-named read-outs stand apart in the source and are kept apart here. Marks after values point to notes of the source that are not given here.

Experiments:
[1] = 18-membered ring
[2] = molecular target: cyclophilin A (CYPA) (Homo sapiens, UniProt P62937); assay: CYPA-compound binary complex formation by SPR; details: read-out: CYPA Binding Affinity
How it was run: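 Steady-state fit of SPR responses gave binding affinity. Analyte series: 50 μM downward, 2-fold, 10 points, running buffer HBS-P+ (0.05% Tween20, pH7.4, 2% DMSO), 60 s on/60 s off. Surface: biotinylated CypA-Avi captured at 4 μg/ml against a reference cell, regenerated with NaOH/guanidine.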

[3] = molecular target: T1, BRAF-GTP-KRAS-G12C complex (Homo sapiens, UniProt P01116, G12C); assay: KRAS-BRAF complex disruption TR-FRET without CYPA (presenter dependence); assay type: biochemical
T1 construct: 50 nM of His6-KRas G12C-GTP (1-169)
Procedure: (§1) In this example, TR-FRET was used to measure the compound-facilitated disruption of a KRAS-BRAF complex. A mixture of tagless Cyclophilin A, His6-KRAS G12C-GMP-PNP, and GST-BRAF RAS binding domain was added to a 384-well assay plate containing compounds of the invention and incubated for 3 hours. A mixture of Anti-His Eu-W1024 and anti-GST allophycocyanin was then added and the reaction was incubated for an additional 1.5 hours. TR-FRET signal was read on an EnVision microplate reader (Perkin Elmer, Ex 320 nm, Em 665/615 nm). Compounds that facilitate disruption of a KRAS_BRAF complex were identified as those eliciting a decrease in the TR-FRET ratio relative to DMSO control wells. To determine the presenter-dependence of the compound-mediated KRAS-BRAF complex disruption, Cyclophilin A was left out of the initial incubation (see Table 5). To determine G12C specificity of the compound-mediated KRAS-BRAF complex disruption, wild-type KRAS was used instead of G12C KRAS (see Table 5).
(§2) Reagents and Instrument • Tagless CYPA; 519 μM in PBS buffer, pH 7.4 • GST BRAF; 110 μM in PBS buffer, pH 7.4 • His6-KRASG12C-GMP-PNP; 50 μM in PBS buffer, pH 7.4 • His6-KRASWT-GMP-PNP; 40 μM in PBS buffer, pH 7.4 • Anti-His Eu-W1024 (LANCE® Eu-W1024; Perkin Elmer) • Anti-GST allophycocyanin (Anti-GST IgG conjugated to SureLight®-Allophycocyanin; Perkin Elmer; Product Number AD0059G) • Test compounds, 10 mM in 100% DMSO • EnVision (Perkin Elmer) • Combi MultiDrop liquid dispenser with 8-channel small volume cassette • 384-well ProxiPlate (black)
(§3) Experimental Protocol • 1. Use Mosquito to dispense 100 nL/well of compounds (varying concentration in […]) into 384-well black ProxiPlate to make assay-ready-plate (ARP). • 2. Make assay buffer containing 25 mM Hepes pH 7.3, 100 mM NaCl, 5 mM MgCl2, 0.05% BSA, and 0.002% Tween-20. • 3. Make PRE-MIX A: delivers final concentrations of 50 nM of His6-KRas G12C-GTP (1-169) and 500 nM of tagless CypA (1-165) in assay buffer. • a. […] Read on EnVision (Ex: 320 nm; Em1: 615 nm; Em2: 665 nm). • 8. […]

[4] = molecular target: T2, KRAS-G12C (Homo sapiens, UniProt P01116+P62937, G12C); assay: Percentage of crosslinking to KRAS-G12C in the presence of BME and CYPA (TOF-MS); assay type: biochemical; details: 60 minute incubation; compound 2 μM, CypA 5 μM, G12C-GMPNP 0.5 μM, BME
T2 construct: CypA 1-165 (final concentration 5 μM)
Procedure: • 1. 10×Incubation buffer: 125 mM HEPES pH 7.4, 750 mM NaCl, 10 mM MgCl2 • 2. 50 μM Protein A stock (CypA) in incubation buffer • 3. 5 μM Protein B (G12C-GMPNP) stock in incubation buffer • 4. 20 μM compound stock in 1×Incubation buffer with 10% DMSO • 5. 25 mM BME stock solution (prepared by diluting the BME stock in Milli Q water)
CypA 1-165 (final concentration 5 μM), test compound (final concentration 2 μM) and G12C-GMPNP (final concentration 0.5 μM) were incubated in the incubation buffer ([…]) for the requisite amount of time at room temperature. The samples were quenched with formic acid, final concentration 0.5%. 10 μL aliquots were injected to TOF-MS.
Sequence of Addition for a Final Incubation Volume of 50 μL • 1. 5 μL 10×incubation buffer • 2. 28 ul H2O • 3. 2 μL from 25 mM BME stock • 4. 5 μL CypA at 50 uM • 5. 5 μL from 5 μM G12C-GMPNP • 6. 5 μL compound from 20 μM compound stock
LC-MS is performed on an Agilent 6230 TOF-LC mass spectrometer equipped with an electrospray probe operated in positive ionization mode. 10 μL samples are injected on a Sepax Bio-C4, 300 Å, 2.1×100 mm column. The mobile phase is 0.1% (vol/vol) formic acid and 0.1% 1 mM ammonium formate in 95% water, 4.8% acetonitrile (A) and 0.1% (vol/vol) formic acid and 0.1% 1 mM ammonium formate in 95% acetonitrile and 4.8% water (B). The separation is performed by a 9 min total gradient consisting of 5 min linear gradient from 25% to 50% B, and a wash at 100% B for 1.25 min, all at a flow rate of 0.6 mL/min (see attached timetable below). Mass spectrometer source conditions were capillary voltage, 4,000 V; cone voltage, 120 V; source temperature, 275° C.; scan range, 100-2,000 a.m.u. with a cycle time of 1 s.
The observed mass is generated by averaging the major peak in the total ion current (TIC). The charge-state series of the species are deconvoluted using Agilent MassHunter Bioconfirm using maximum entropy setting (range is set to 17000-23000 Da). […]

[5] = molecular target: T3, BRAF-GTP-KRASWT complex (Homo sapiens, UniProt P01116+P62937); assay: KRAS-BRAF complex disruption TR-FRET with wild-type KRAS (G12C specificity); assay type: biochemical; details: with CYPA
T3 construct: substitute His6-KRas WT-GTP (1-169) for His6-KRas G12C-GTP (1-169); 500 nM of tagless CypA (1-165)
Procedure: as §1, §2, §3

[6] = molecular target: T4, BRAF-GTP-KRAS-G12C complex (Homo sapiens, UniProt P01116+P62937, G12C); assay: KRAS-BRAF complex disruption through competition with CYPA-compound by TR-FRET; details: biochemical BRAF-KRAS G12C-GTP disruption assay EC50, with CYPA
T4 construct: 50 nM of His6-KRas G12C-GTP (1-169); 500 nM of tagless CypA (1-165)
How it was run: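 Compound-driven loss of KRAS–BRAF RBD TR-FRET signal, Eu-anti-His/APC-anti-GST pair (10/50 nM, 1.5 h), following a 3 h room-temperature preincubation of 50 nM His6-KRAS G12C-GTP and 500 nM CypA in 25 mM Hepes pH 7.3 buffer. EC50 by 4-parameter fit. Variants used wild-type KRAS in place of G12C or no CypA.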

[7] = system: pERK in H358 cells; assay: pERK inhibition in H358 cells; assay type: cell-based, human; details: 4 hours treatment, read-out: Cellular pERK inhibition
How it was run: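 Human lung cancer H358 cells in RPMI/10% FBS were exposed to compound or DMSO for 4 h. Fixed and permeabilized cells were stained overnight at 4 C with anti-phospho-ERK1/2 (Thr202/Tyr204). Near-infrared imaging read the pERK signal at 800 nm, with DRAQ5 at 700 nm.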

Compound | ring closure, isolated yield ([1]; from CC(C)[Si](Oc1cc(C[C@H](NC(=O)OC(C)(C)C)C(=O)N2CCC[C@@H](C(=O)O)N2)cc(-c2ccc3c(Br)cn(C[C@H](C)CO)c3c2)c1)(C(C)C)C(C)C, ester bond, EDCI/HOBt/DIEA, DCM, 122.5 mM, 25.0 °C, 16.0 h) [%] | ring closure, isolated yield ([1]; from CC(C)[Si](Oc1cc(C[C@H](NC(=O)OC(C)(C)C)C(=O)N2CCC[C@@H](C(=O)NCC(C)(C)Cn3cc(C#N)c4ccc(Br)cc43)N2)cc(B2OC(C)(C)C(C)(C)O2)c1)(C(C)C)C(C)C, cc_pd bond, Pd(dppf)Cl2.CH2Cl2/K2CO3, dioxane/H2O 5:1, 22.9 mM, 80.0 °C, 2.0 h) [%] | Kd [2] [µM] | IC50 [3] [µM] | % Crosslinking with KRAS-G12C-GTP in presence of CYPA [4] | IC50 [5] [µM] | EC50 [6] [µM] | IC50 [7] [µM]
CC(C)[Si](Oc1cc2cc(c1)-c1ccc3c(Br)cn(c3c1)C[C@H](C)COC(=O)[C@@H]1CCCN(N1)C(=O)[C@@H](NC(=O)OC(C)(C)C)C2)(C(C)C)C(C)C | 59 |  |  |  |  |  |  | 
CC(C)[Si](Oc1cc2cc(c1)-c1ccc3c(C#N)cn(c3c1)CC(C)(C)CNC(=O)[C@@H]1CCCN(N1)C(=O)[C@@H](NC(=O)OC(C)(C)C)C2)(C(C)C)C(C)C |  | 53 |  |  |  |  |  | 
CC(C)[C@@H](C(=O)N[C@H]1Cc2cc(O)cc(c2)-c2ccc3nc(-c4cccnc4)n(c3c2)CCCOC(=O)[C@@H]2CCCN(N2)C1=O)N(C)C(=O)C1CN(C(=O)CCl)C1 [Compound 169] |  |  | ≤ 5 | > 30 | 39^‡ % | > 30 | 0.5 to 5 | 
C=CC(=O)N1CCN(C(=O)N(C)[C@H](C(=O)N[C@H]2Cc3cc(O)cc(c3)-c3ccc4c(C(C)(C)C#N)cn(c4c3)CC(C)(C)COC(=O)[C@@H]3CCCN(N3)C2=O)C(C)C)CC1 [Compound 344] |  |  | 5 to 15 |  |  |  | 0.5 to 5 | 1 to 10
C=CC(=O)N1CCC(C(=O)N(C)C(C(=O)NC2Cc3cc(O)cc(c3)-c3ccc4c(c3)N(CC(C)COC(=O)C3CCCN(N3)C2=O)CC4(C)C(C)=O)C(C)C)C1 (stereo not shown) [Compound 391] |  |  | ≤ 5 |  |  |  | > 5 | > 10
C=CC(=O)N1CCC(C(=O)N(C)C(C(=O)NC2Cc3cc(O)cc(c3)-c3ccc4c(c3)c(cn4-c3cc(COC)ccc3C#N)CC(C)(C)COC(=O)C3CCCN(N3)C2=O)C(C)C)C1 (stereo not shown) [Compound 393] |  |  | 5 to 15 |  |  |  | 0.5 to 5 | 1 to 10
C=CC(=O)N1CCC(C(=O)N(C)C(C(=O)NC2Cc3cc(O)cc(c3)-c3ccc4c(-c5c(COC)noc5C)cn(c4c3)CC(C)(C)COC(=O)C3CCCN(N3)C2=O)C(C)C)C1 (stereo not shown) [Compound 394] |  |  | 5 to 15 |  |  |  | 0.5 to 5 | > 10
C=CC(=O)N1CCC(C(=O)N(C)C(C(=O)NC2Cc3cc(O)cc(c3)-c3ccc4c(c3)c(cn4C(C)(C)C#N)CC(C)(C)COC(=O)C3CCCN(N3)C2=O)C2CCCC2)C1 (stereo not shown) [Compound 395] |  |  | ≤ 5 |  |  |  | 0.5 to 5 | ≤ 1
C=CC(=O)N1CCC(C(=O)N(C)C(C(=O)NC2Cc3cc(O)cc(c3)-c3ccc4c(c3)c(c(C#N)n4CC)CC(C)(C)COC(=O)C3CCCN(N3)C2=O)C2CCCC2)C1 (stereo not shown) [Compound 397] |  |  | ≤ 5 |  |  |  | ≤ 0.5 | ≤ 1
C=CC(=O)N1CCC(C(=O)N(C)C(C(=O)NC2Cc3cc(O)cc(c3)-c3ccc4c(c3)N(CC(C)(C)COC(=O)C3CCCN(N3)C2=O)CC4(C)COC)C2CCCC2)C1 (stereo not shown) [Compound 398] |  |  | ≤ 5 |  |  |  | 0.5 to 5 | ≤ 1
C=CC(=O)N1CCC(C(=O)N(C)C(C(=O)NC2Cc3cc(O)cc(c3)-c3ccc4c(c3)c(c(C#N)n4CCOC)CC(C)(C)COC(=O)C3CCCN(N3)C2=O)C(C)C)C1 (stereo not shown) [Compound 400] |  |  | 5 to 15 |  |  |  | ≤ 0.5 | 1 to 10
C=CC(=O)N1CCC(C(=O)N(C)C(C(=O)NC2Cc3cc(O)cc(c3)-c3ccc4c(c3)N(CC(C)(C)COC(=O)C3CCCN(N3)C2=O)CC4(C=CC#N)COC)C(C)C)C1 (stereo not shown) [Compound 404] |  |  | > 15 |  |  |  | ≤ 0.5 | 1 to 10
C=CC(=O)N1CCC(C(=O)N(C)C(C(=O)NC2Cc3cc(O)cc(c3)-c3ccc4c(c3)c(cn4C(C#N)(CC)CC)CC(C)(C)COC(=O)C3CCCN(N3)C2=O)C(C)CC)C1 (stereo not shown) [Compound 405] |  |  | 5 to 15 |  |  |  | 0.5 to 5 | ≤ 1
